US20120309087A1, “CANCER THERAPY” (University Court of The University of Dundee, priority 2006, published 2012)
Several values for one entry are separate records, joined by “and”; a condition that tells them apart may be missing. Equal values may be shown once.

Legend:
[1] = test system: ARE-driven luciferase activity in AREc32 cells; assay: Induction of ARE-driven luciferase activity in stable AREc32 reporter cells; format: cell-based, human; details: for CD, concentration of inducting agent that doubled luciferase reporter activity: AREc32, DMSO set at 1
[2] = test system: AKR1C1 and NQO1 mRNA in Caco-2 cells; assay: AKR1C1 and NQO1 mRNA in Caco-2 cells (TaqMan); format: cell-based, human; details: sulforaphane 5 μM, 24 hrs
Method: Method: AREc32 cells were seeded out in 96 well plates and treated with DMSO (control), tBHQ (50 μM), tBHQ+BTB09463 (5 μM) or tBHQ+Retinoic acid (1 μM). After 24 hours incubation, cells were washed and lysed before measuring luciferase activity. BTB09463 is 1-{4-[(3,4-dichlorobenzyl)oxy]phenyl}ethan-1-one. […] Method: AREc32 cells were seeded out in 96 well plates and dosed with BTB09463 (2.5, 5 or 10 μM) for 0, 24 or 48 hrs before treatment with tBHQ (50 μM). 24 hours after the addition of tBHQ, cells were washed and lysed before measuring luciferase activity. […] Method: ARE c32 cells were seeded out in 96 well plates and treated with DMSO (control), tBHQ (50 μM), tBHQ+retinoid (0.25, 0.5 and 1 μM). After 24 hours incubation, cells were washed and lysed before measuring luciferase activity. […] See FIG. 16 Method: A. Caco-2 cells were treated with the known ARE-gene inducer sulforaphane (5 μM), either alone or concomitantly with BTB09463 (5 μM) or Retinoic acid (1 μM). After 24 hrs, cell lysates were prepared and Western blotting performed to measure the levels of AKR1C protein. B. MCF7 cells were treated with sulforaphane (5 μM), either alone or concomitantly with BTB09463 (5 μM). After 24 hrs, cell lysates were prepared and Western blots performed to detect the levels of AKR1C and NQO1; GAPDH was used as a loading control in MCF7 cells. […] Method: Caco-2 cells were treated with DMSO (control), BTB09463 (5 μM), sulforaphane (5 μM) or a combination of sulforaphane plus BTB09463. After 24 hrs treatment, cells were harvested and RNA isolated. cDNA for each sample was generated by reverse transcription and subsequently used in real time PCR analysis of gene transcription (TaqMan analysis) for the ARE-driven genes AKR1C1 and NQO1. Data was normalised to the internal control 18S RNA and the relative levels of AKR1C1 and NQO1 calculated using the comparative CT method. […] Method: MCF7 cells were treated with the known ARE-gene inducer sulforaphane (5 μM), either alone or with various retinoids (0.5 μM). After 24 hrs, cell lysates were prepared and Western blots were performed to detect the levels of AKR1C protein present. […] See FIG. 19 Method: ARE reporter cell line AREc23 was seeded into 96 well plates and treated with a previously determined non-toxic concentration of cytotoxic drug. After 24 hours incubation, cells were washed and lysed before measuring luciferase activity. […] See FIG. 20a Method: ARE reporter cell line AREc23 was seeded into 96 well plates and treated with DMSO (control), Carmustine (100 μM), Carmustine+BTB09463 (5 μM) or Carmustine+Retinoic acid (5 μM) After 24 hours incubation, cells were washed and lysed before measuring luciferase activity. […] After 24 hours incubation, cells were washed and lysed before measuring luciferase activity. […]

[3] = test system: AKR1C and NQO1 protein in MCF7 cells; assay: AKR1C and NQO1 protein in MCF7 cells (Western blots); format: cell-based, human; details: sulforaphane 5 μM + retinoid 0.5 μM, 24 hrs
Method: Method: AREc32 cells were seeded out in 96 well plates and treated with DMSO (control), tBHQ (50 μM), tBHQ+BTB09463 (5 μM) or tBHQ+Retinoic acid (1 μM). After 24 hours incubation, cells were washed and lysed before measuring luciferase activity. BTB09463 is 1-{4-[(3,4-dichlorobenzyl)oxy]phenyl}ethan-1-one. […] Method: AREc32 cells were seeded out in 96 well plates and dosed with BTB09463 (2.5, 5 or 10 μM) for 0, 24 or 48 hrs before treatment with tBHQ (50 μM). 24 hours after the addition of tBHQ, cells were washed and lysed before measuring luciferase activity. […] Method: ARE c32 cells were seeded out in 96 well plates and treated with DMSO (control), tBHQ (50 μM), tBHQ+retinoid (0.25, 0.5 and 1 μM). After 24 hours incubation, cells were washed and lysed before measuring luciferase activity. […] See FIG. 16 Method: A. Caco-2 cells were treated with the known ARE-gene inducer sulforaphane (5 μM), either alone or concomitantly with BTB09463 (5 μM) or Retinoic acid (1 μM). After 24 hrs, cell lysates were prepared and Western blotting performed to measure the levels of AKR1C protein. B. MCF7 cells were treated with sulforaphane (5 μM), either alone or concomitantly with BTB09463 (5 μM). After 24 hrs, cell lysates were prepared and Western blots performed to detect the levels of AKR1C and NQO1; GAPDH was used as a loading control in MCF7 cells. […] Method: Caco-2 cells were treated with DMSO (control), BTB09463 (5 μM), sulforaphane (5 μM) or a combination of sulforaphane plus BTB09463. After 24 hrs treatment, cells were harvested and RNA isolated. cDNA for each sample was generated by reverse transcription and subsequently used in real time PCR analysis of gene transcription (TaqMan analysis) for the ARE-driven genes AKR1C1 and NQO1. Data was normalised to the internal control 18S RNA and the relative levels of AKR1C1 and NQO1 calculated using the comparative CT method. […] Method: MCF7 cells were treated with the known ARE-gene inducer sulforaphane (5 μM), either alone or with various retinoids (0.5 μM). After 24 hrs, cell lysates were prepared and Western blots were performed to detect the levels of AKR1C protein present. […] See FIG. 19 Method: ARE reporter cell line AREc23 was seeded into 96 well plates and treated with a previously determined non-toxic concentration of cytotoxic drug. After 24 hours incubation, cells were washed and lysed before measuring luciferase activity. […] See FIG. 20a Method: ARE reporter cell line AREc23 was seeded into 96 well plates and treated with DMSO (control), Carmustine (100 μM), Carmustine+BTB09463 (5 μM) or Carmustine+Retinoic acid (5 μM) After 24 hours incubation, cells were washed and lysed before measuring luciferase activity. […] After 24 hours incubation, cells were washed and lysed before measuring luciferase activity. B. Modified repeat of experiment A, with cells being pretreated with L-buthionine-(SR)-sulfoximine (BSO), an inhibitor of enzymes in the glutathione synthesis pathway. After 24 hours incubation, cells were washed and lysed before measuring luciferase activity. […] Method: Caco-2 cells were treated for 24 hrs with DMSO (control), Carmustine (100 μM), Carmustine+BTB09463 (5 μM). After 24 hrs, cell lysates were prepared and Western blots to detect the levels of AKR1C. […] Method: MCF7 cells were treated for 24 hrs with DMSO (control; Lane 1), Sulforaphane (5 μM) (Lane 2), Carmustine (100 μM) (Lane 3), Carmustine+BTB09463 (5 μM) (Lane 5). (Lane 4 represents experimental conditions irrelevant to the application). After 24 hrs, cell lysates were prepared and Western blots to detect the levels of Nrf2, NQO1 and AKR1C proteins.

[4] = test system: AKR1C1, NQO1, GCLC, GCLM mRNA in A549 cells; assay: Constitutive mRNA of ARE-driven genes in A549 cells (Taqman); format: cell-based, human; details: BTB09463 1, 5, 20, 40 μmol/l or retinoids 0.050, 0.20, 0.50, 2.0 μmol/l, 24 hrs
[5] = test system: ARE-green fluorescent protein (GFP) reporter HepG2 cell line; details: 90 μM tBHQ; HepG2/GFP-B; cited from earlier work
[6] = test system: AKR1C mRNA in AREc32 cells; assay: AKR1C mRNA in AREc32 cells (TaqMan); details: 10 μM tBHQ, 24 h
[7] = test system: ARE reporter system in CHO cells; assay: Transient pGL-GSTA2.41bp-ARE luciferase reporter in CHO cells; details: 50 μM tBHQ
Method: (§1) The Dual-luciferase Reporter Assay System (Promega) was used to examine reporter gene activity in transiently transfected cells. Briefly, cells were seeded at a density of 2×10^5 cells/well in 24-well plates and grown in the appropriate medium. After overnight incubation, the cells were transiently transfected with various ARE-luciferase reporter plasmids. The plasmid pRL-TK, encoding Renilla luciferase was used to control for transfection efficiency. Transfections were performed using Lipofectamine 2000 Reagent (Lifer Technologies Inc. Ltd., Coventry, UK) according to the manufacture's instructions. Following transfection, the culture medium was replaced 24 h later with fresh growth medium containing 50 μM tBHQ (in a solution giving a final concentration of 0.1% v/v dimethyl sulfoxide (DMSO)), which was prepared immediately before each experiment. For control experiments, vehicle alone (0.1% v/v DMSO) was added to the growth medium. Cells were left for 24 h to respond to xenobiotics before being harvested and the firefly and Renilla luciferase activities in cell lysates were measured using a luminometer (Turner Designs Model TD-20/20, Promega) following addition of Luciferase Assay Reagent II (Promega). […] The relative luciferase activity was calculated by normalizing firefly luciferase activity to that of Renilla luciferase. […]

[8] = test system: ARE reporter system in MCF7 cells; assay: Transient pGL-GSTA2.41bp-ARE luciferase reporter in MCF7 cells
Method: The Dual-luciferase Reporter Assay System (Promega) was used to examine reporter gene activity in transiently transfected cells. Briefly, cells were seeded at a density of 2×10^5 cells/well in 24-well plates and grown in the appropriate medium. After overnight incubation, the cells were transiently transfected with various ARE-luciferase reporter plasmids. The plasmid pRL-TK, encoding Renilla luciferase was used to control for transfection efficiency. Transfections were performed using Lipofectamine 2000 Reagent (Lifer Technologies Inc. Ltd., Coventry, UK) according to the manufacture's instructions. Following transfection, the culture medium was replaced 24 h later with fresh growth medium containing 50 μM tBHQ (in a solution giving a final concentration of 0.1% v/v dimethyl sulfoxide (DMSO)), which was prepared immediately before each experiment. For control experiments, vehicle alone (0.1% v/v DMSO) was added to the growth medium. Cells were left for 24 h to respond to xenobiotics before being harvested and the firefly and Renilla luciferase activities in cell lysates were measured using a luminometer (Turner Designs Model TD-20/20, Promega) following addition of Luciferase Assay Reagent II (Promega). After quenching the reaction, the Renilla luciferase reaction was initiated by adding Stop & Glo Reagent (Promega). The relative luciferase activity was calculated by normalizing firefly luciferase activity to that of Renilla luciferase.
In order to choose an appropriate cell system for the generation of a stable reporter cell line, pGL-GSTA2.41 bp-ARE was transfected into HepG2, MCF7, CHO, Hepa1 cells.

[9] = test system: ARE reporter system in HepG2 cells; assay: Transient pGL-GSTA2.41bp-ARE luciferase reporter in HepG2 cells; details: 50 μM tBHQ
Method: as §1

[10] = test system: ARE reporter system in Hepa1 cells; assay: Transient pGL-GSTA2.41bp-ARE luciferase reporter in Hepa1 cells; details: 50 μM tBHQ
Method: as §1

MCF7 cells = assay: cells; format: cell-based; details: single agent
A549 cells = assay: Cytotoxicity in A549 cells (ATP levels, 72 h); format: cell-based, human; details: single agent
[11] = HepG2 cells treated with DMSO set at 1

C[S+]([O-])CCCCN=C=S (stereo not shown) [SUL, sulforaphane]
CD, concentration of inducting agent that doubled luciferase reporter activity ([1]; 24 h): 2 µM
induction of AKR1C1 mRNA [2]: 12 fold
induction of NQO1 mRNA [2]: less markedly induced

CC1=C(/C=C/C(C)=C/C=C/C(C)=C/C=O)C(C)(C)CCC1 [all-trans retinal]
sulforaphane-induced AKR1C protein [3]: reduced the expression of sulforaphane-induced AKR1C
constitutive expression of AKR1C1 mRNA [4]: inhibited the constitutive expression of AKR1C1 in a concentration-dependent manner

CC(C)(C)c1cc(O)ccc1O [tBHQ, tert-butylhydroquinone]
increase of luciferase activity ([1]; 1 μM tBHQ, 24 h): 2 fold
increase of luciferase activity ([1]; 5 μM tBHQ, 24 h): 5 fold
lag phase before increase of luciferase activity ([1]; 10 μM tBHQ alone): approximately 3 hour
increase of luciferase activity ([1]; 10 μM tBHQ, 8 h): 4 fold
increase of luciferase activity ([1]; 10 μM tBHQ, 18 h): 10 fold
induction of luciferase activity ([1]; 10 μM tBHQ, 50 ng pRS-hNrf2 DNA per well (Nrf2 RNAi)): 8 fold
induction of luciferase activity ([1]; 10 μM tBHQ, 100 ng pRS-hNrf2 DNA per well (Nrf2 RNAi)): 6 fold
induction of luciferase activity ([1]; 10 μM tBHQ, control cells, no DNA in the transfection mix): 13 fold and 10 fold
inducible level of luciferase activity ([1]; 10 μM tBHQ, transfection with 50 ng pHyg-EF-hNrf2 per well): 19 fold
inducible level of luciferase activity ([1]; 10 μM tBHQ, transfection with 100 ng pHyg-EF-hNrf2): 25 fold
induction of luciferase expression compared to DMSO control ([1]; 50 μM tBHQ, 24 h): 14 fold
CD, concentration of inducting agent that doubled luciferase reporter activity ([1]; 24 h): 1 µM
maximal increase of GFP reporter [5]: 3 fold
induction of AKR1C1 mRNA [6]: approximately 15 fold
Ratio (tBHQ/DMSO) [7]: 2.7 ± 0.1
Relative luciferase activity (tBHQ treated) [7, 11]: 1171.6 ± 8.8
Ratio (tBHQ/DMSO) ([8]; 50 μM tBHQ): 52.0 ± 11.9
Relative luciferase activity (tBHQ treated) ([8]; 50 μM tBHQ, HepG2 cells treated with DMSO set at 1): 2276.1 ± 521.1
induction of luciferase activity ([8]; overnight treatment with 50 μM tBHQ): up to 50 fold
Ratio (tBHQ/DMSO) [9]: 2.8 ± 0.9
Relative luciferase activity (tBHQ treated) [9, 11]: 2.8 ± 0.9
Ratio (tBHQ/DMSO) [10]: 3.6 ± 0.5
Relative luciferase activity (tBHQ treated) [10, 11]: 140.7 ± 19.6

CCC(=O)OC/C=C(C)/C=C/C=C(C)/C=C/C1=C(C)CCCC1(C)C [vitamin A propionate]
sulforaphane-induced AKR1C protein [3]: reduced the expression of sulforaphane-induced AKR1C

Bleomycin
IC50 (MCF7 cells): 660 µM
IC50 (A549 cells): 55 µM
